# In paper PMC10451668, “Natural Acetogenins, Chatenaytrienins-1, -2, -3 and -4, Mitochondrial Potential Uncouplers and Autophagy Inducers—Promising Anticancer Agents” (Antioxidants, 2023):
# Tests used:
# Format in all cases: cell-based, human
# [1] = system: U937; assay: Cytotoxicity assay (7-AAD viability, flow cytometry); conditions: Homo sapiens, U-937, ± standard error of the mean, 95% CI in parenthesis
# Description: (§1) Cells, including Jurkat E6.1 (human leukemic T cell lymphoblasts, catalogue no. 88042803), K562 (human chronic myelogenous leukemia cells, catalogue no. 89121407), U937 (human histiocytic lymphoma cells, catalogue no. 85011440), HL60 (human promyelocytic leukemia cells, catalog no. 98070106), HEK293 (human embryonic kidney cells with adenovirus, catalog no. 85120602), and human lung fibroblasts Ce (catalogue no. 90011883), were purchased from the European Collection of Authenticated Cell Cultures (UK Health Security Agency) and cultured according to standard protocols using sterile techniques. […] Cells were maintained in RPMI 1640 (Jurkat, K562, U937, and HL60) and DME M (fibroblast and HEK293) (Gibco) supplemented with […] glutamine, 10% FBS (Sigma), and 100 units/mL penicillin-streptomycin (Sigma). All types of cells were grown under an atmosphere of 5% CO2 at 37 °C. The cells were subcultured at 2–3-day intervals. Cells were then seeded in 24-well plates at 5 × 10^4 cells per well and incubated overnight. Jurkat, K562, U937, HL60, HEK293, and fibroblast cells were subcultured at 2-day intervals with a seeding density of 1 × 10^5 cells per well in 24-well plates in RPMI with 10% FBS.
# (§2) Viability (live/dead) assessment was performed by staining cells with 7-AAD (7-aminoactinomycin D; Biolegend). After treatment, cells were harvested, washed 1–2 times with phosphate-buffered saline (PBS), and centrifuged at 400× g for 5 min. Cell pellets were resuspended in 200 µL of flow cytometry staining buffer (PBS without Ca^2+ and Mg^2+, 2.5% FBS) and stained with […] of 7-AAD staining solution for 15 min at room temperature in the dark. Samples were assessed using the NovoCyte Penteon Flow Cytometer System (Agilent, 5301 Stevens Creek Blvd., Santa Clara, CA, USA). Detection of 7-AAD emission was collected through a 675/30 nm filter in the FL4 channel.
# [2] = system: Jurkat; assay: as above; conditions: Homo sapiens, ± standard error of the mean, 95% CI in parenthesis
# Description: as §1, §2
# [3] = system: HL60; assay: as above; conditions: Homo sapiens, HL-60, ± standard error of the mean, 95% CI in parenthesis
# Description: as §1, §2
# [4] = system: K562; assay: as above; conditions: Homo sapiens, ± standard error of the mean, 95% CI in parenthesis
# Description: as §1, §2
# [5] = as above; conditions: human; Hek293, conditionally normal line; ± standard error of the mean, 95% CI in parenthesis
# Description: as §1, §2
# [6] = system: Jurkat cells; assay: Assessment of autophagy (anti-LC3/FITC, flow cytometry); conditions: 0.5 CC50, 48 h
# Description: Autophagy is involved in various physiological processes and its changes are associated with the pathogenesis of diseases such as neurodegenerative diseases, cardiovascular complications, cancer, and infectious diseases, as well as with physiological processes such as innate and specific immunity, pathogen clearance, lymphocyte selection, antigen presentation, and production of immunoglobulins. Therefore, the determination of LC3 protein inside autophagosomes without the cytosolic form of LC3-I at the stage of selective cell permeability was measured using flow cytometry. Thus, using the FlowCellect™ LC3-GFP Reporter Autophagy Assay Kit (FCCH100170 and FCCH100181), flow cytometry allowed for a rapid assay that could be combined with other phenotypic and functional markers to characterize different cell populations.
# Canonical autophagy is associated with the conversion of LC3 protein (an autophagosome marker) from the cytoplasmic form of LC3I to the lipid-bound form of LC3II, which is associated with the membranes of maturing autophagosomes. The autophagy process can be conveniently classified into several stages. First, induction and translocation of the cytoplasmic LC3 protein occur due to the influence of external stimuli (adverse environmental influences)—the process is initiated by external/internal stimuli (for example, nutrient depletion or hypoxia). Then, the formation of autophagosomes begins, which are double-membrane vesicles that include the LC3 protein. This protein regulates the fusion of autophagosomes and lysosomes. It exists in two fractions—cytoplasmic LC3-I and LC3-II, isolated in the autophagosomal membrane. The LC3-II protein fraction was specified in our work, as its detection is a reliable indicator of the processes of autophagy in the cell.
# [7] = system: Jurkat cells; assay: Cell cycle analysis (propidium iodide, Guava Cell Cycle Reagent); conditions: compound at CC50, 48 h, control did not exceed 34.2%
# Protocol: The cell cycle was analyzed by propidium iodide staining (Guava® Cell Cycle Reagent 4500-0220). […] The cell pellet was resuspended in 200 μL of flow cytometry staining buffer (PBS without Ca^2+ and Mg^2+, 2.5% FBS). Cells were then seeded in 24-well plates at a density of 15 × 10^5 cells per well, centrifuged at 450× g for 5 min, then fixed with ice-cold 70% ethanol for 24 h at 0 °C. Before staining with propidium iodide, cells were washed with PBS and incubated with 250 µL of cell cycle detection reagent (Millipore) for 40 min at 22 °C in the dark. Samples were analyzed using the NovoCyte Penteon Flow Cytometer System (Agilent, 5301 Stevens Creek Blvd., Santa Clara, CA, USA).
# [8] = system: Jurkat cells; assay: Detection of mitodamage: mitochondrial membrane potential and apoptosis (MitoSense Red, annexin V, 7-AAD); conditions: compound at CC50, 4 h
# Description: The use of reagents MitoSense Red, annexin V, and 7-AAD in the Millipore FlowCellect™ MitoDamage Kit allowed us to gain information on early, mid, and late apoptosis with one simple assay. […] After this time, the cells were dissociated using an accutase solution, stained, and analyzed using the NovoCyte Penteon Flow Cytometer System (Agilent, 5301 Stevens Creek Blvd., Santa Clara, CA, USA), according to the manufacturer’s protocols for the FlowCellect™ MitoDamage Kit and FlowCellect™ Oxidative Stress Characterization Kit (Merck).
# Detection of mitochondrial potential dissipation using MitoSense Red, annexin V, and 7-AAD provided a simultaneous measurement of three important parameters of the cell state within the same cell sample: the state of the mitochondrial potential (Δψ), detected by the membrane-penetrating MitoSense Red dye; the expression of phosphatidylserine on the cell surface of apoptotic cells, assessed by the binding of annexin V to externalized phosphatidylserine; and the binding of 7-AAD to DNA in cells in the late stages of apoptosis. Multiparametric evaluation of these indicators of cell viability made it possible to determine the correlation and relationship between oxidation dissipation and phosphorylation with apoptosis.
# [9] = system: Jurkat tumor cell line; assay: Assessment of cytochrome c loss (FlowCellect Cytochrome c Kit); conditions: compound at CC50, incubation 3 h, anti-cytochrome c-FITC
# Protocol: Quantification of cytochrome c release from mitochondria in apoptotic cells was presented to detect the mitochondrial pathway of apoptosis in cells using flow cytometry with the FlowCellect™ Cytochrome c Kit (FCCH100110). For this, cells were treated with FITC-conjugated antibodies against cytochrome c and control anti-IgG1-FITC, together with the use of an optimized fixation procedure, permeabilization, and blocking buffer (Luminex®, USA). […] Jurkat cells were incubated for 4 h with the synthesized substances at a concentration corresponding to their 24-h CC50 in a culture plate and assessed using the NovoCyte Penteon Flow Cytometer System (Agilent, 5301 Stevens Creek Blvd., Santa Clara, CA, USA). The obtained data were processed using NovoExpress® software (ACEA).
# [10] = system: Jurkat cells; assay: Oxidative stress and early apoptosis (MitoSOX Red and annexin V, MitoStress Kit); conditions: compound at CC50, 4 h, MitoSOX Red and annexin V
# Description: Changes in the mitochondrial membrane potential (ΔΨ) in Jurkat cells induced by treatment with the synthesized compounds were detected using MitoSOX Red, a positively charged probe that accumulates rapidly in mitochondria and as such can be used to detect superoxide/ROS production within mitochondria using fluorometry, microscopy, or flow cytometry. Live cells induced a low level of MitoSOX Red fluorescence, while cells with scattered mitochondrial membrane potential caused much higher MitoSOX Red fluorescence. Annexin V is a dye commonly used to detect early signs of apoptosis. […] Thus, using two different dyes, MitoSOX Red and annexin V (CF488A), in the FlowCellect™ MitoStress Kit (FCCH100109), we analyzed the mitochondrial membrane potential dissipation and associated apoptosis in Jurkat cells in response to the synthesized chatenaytrienins.
# Therefore, simultaneous detection of mitochondrial superoxide generation (detected by MitoSOX Red membrane-penetrating dye) and expression of phosphatidylserine on the cell surface of apoptotic cells (assessed by binding of annexin V) in the same cell sample provides an accurate evaluation of the ability of the test compound to initiate oxidative stress in cell culture and induce apoptosis.
# [11] = Cytotoxicity assay (7-AAD viability, flow cytometry); conditions: human; normal fibroblasts; ± standard error of the mean, 95% CI in parenthesis
smiles,measurement,setting,value
"CCCCCCCCCCCC/C=C\CC/C=C\CC/C=C\CCCCCCCCC1=C[C@H](C)OC1=O [compound 2, chatenaytrienin-2]",CC50,[1],120 ± 10 nM
same,CC50,[2],120 ± 60 nM
same,CC50,[3],130 ± 20 nM
same,CC50,[4],180 ± 50 nM
same,CC50,[5],630 ± 30 nM
same,cells with autophagy (gate M3-2),[6],79.96%
same,percentage of cells in the S-phase,[7],~ 47%
same,cells in late apoptosis (stained with 7-AAD),[8]; Jurkat,8.44%
same,Jurkat tumor cells with the Δψ dissipation phenomenon,[8]; MitoSense Red,67.76%
same,cells with cytochrome c released into the cytoplasm (Negative gate),[9],33.51%
same,"cells demonstrating oxidative stress along with the marker of early apoptosis, annexin",[10],11.86%
same,CC50,[11],790 ± 20 nM
